Consider 41 compounds from patent US6951856B2, “Arylethene-sulfonamides” (Actelion Pharmaceuticals Ltd., priority 2000, dated 2005).

Usually IC50 stands for the midpoint of a concentration-inhibition curve.

Like-named read-outs stand apart in the source and are kept apart here. Some results are limits rather than exact numbers.

The target of test [1] is T1, human recombinant ETB receptors (Homo sapiens, UniProt P24530).
T1 construct: expressed in transfected cells; host or cells: CHO cells (microsomal membranes)
T1 sequence (P24530 27-442): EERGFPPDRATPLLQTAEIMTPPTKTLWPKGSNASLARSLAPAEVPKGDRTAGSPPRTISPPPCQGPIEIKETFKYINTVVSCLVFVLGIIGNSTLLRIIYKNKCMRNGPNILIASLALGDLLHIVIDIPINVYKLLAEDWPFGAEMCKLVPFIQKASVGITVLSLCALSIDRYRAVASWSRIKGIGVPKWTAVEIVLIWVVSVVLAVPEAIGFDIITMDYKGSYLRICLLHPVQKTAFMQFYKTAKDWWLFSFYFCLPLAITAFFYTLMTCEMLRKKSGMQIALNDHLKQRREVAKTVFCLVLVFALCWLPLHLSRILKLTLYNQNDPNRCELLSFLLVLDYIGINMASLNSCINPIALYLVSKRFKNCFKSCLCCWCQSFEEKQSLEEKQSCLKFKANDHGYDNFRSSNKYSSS
Nature of the test: Inhibition of [125I]ET-1 binding to membranes from CHO cells carrying human ETB receptors. The method, then: (§1) 1) Inhibition of Endothelin Binding to Membranes from CHO Cells Carrying Human ET Receptors
(§2) For competition binding studies, membranes of CHO cells expressing human recombinant ETA or ETB receptors were used. Microsomal membranes from recombinant CHO cells were prepared and the binding assay made as previously described (Breu V., et al, FEBS Lett 1993; 334:210).
(§3) The assay was performed in 200 uL 50 mM Tris/HCl buffer, pH 7.4, including 25 mM MnCl2, 1 mM EDTA and 0.5% (w/v) BSA in polypropylene microtiter plates. […] After 2 h, the membranes were filtered on filterplates containing GF/C filters (Unifilterplates from Canberra Packard S.A. Zürich, Switzerland). To each well, 50 uL of scintillation cocktail was added (MicroScint 20, Canberra Packard S.A. Zürich, Switzerland) and the filter plates counted in a microplate counter (TopCount, Canberra Packard S.A. Zürich, Switzerland).
(§4) All the test compounds were dissolved, diluted and added in DMSO.

The target of test [2] is T2, human recombinant ETA receptors (Homo sapiens, UniProt P25101).
T2 construct: expressed in transfected cells; host or cells: CHO cells (microsomal membranes)
T2 sequence (P25101 21-427): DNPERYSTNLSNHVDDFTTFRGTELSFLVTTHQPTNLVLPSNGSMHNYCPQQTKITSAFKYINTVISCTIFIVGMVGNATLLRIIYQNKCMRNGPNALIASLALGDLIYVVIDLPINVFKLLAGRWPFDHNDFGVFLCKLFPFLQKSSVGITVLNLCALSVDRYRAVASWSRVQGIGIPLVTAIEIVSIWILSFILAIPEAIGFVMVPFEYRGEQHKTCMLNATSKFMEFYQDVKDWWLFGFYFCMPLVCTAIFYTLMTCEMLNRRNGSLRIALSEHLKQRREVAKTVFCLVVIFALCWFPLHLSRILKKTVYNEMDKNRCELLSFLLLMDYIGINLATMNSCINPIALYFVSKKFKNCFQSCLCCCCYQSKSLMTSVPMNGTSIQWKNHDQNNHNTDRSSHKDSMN
Nature of the test: Inhibition of [125I]ET-1 binding to membranes from CHO cells carrying human ETA receptors. To be noted: CHO cell membranes, 8 pM [125I]ET-1, 2 h at 20° C. The method, then:
as §1, §2, §3, §4

Regarding `O=S(=O)(/C=C/c1ccccc1)Nc1nc(-c2ccncc2)nc(OCCOc2ncc(Br)cn2)c1-c1ccccc1` [Example 109], the values for the IC50 in test [1] and in test [2] were more than 10000 nM and 39 nM, respectively.

With `COCCOc1nc(NS(=O)(=O)/C=C/c2ccccc2)c(-c2ccccc2)c(OCCOc2ncc(Br)cn2)n1` [Example 113], the half-inhibitory concentration (IC50) was more than 10000 nM in test [1] and 14.7 nM in test [2].

Turning to `COc1nc(NS(=O)(=O)/C=C/c2ccccc2)c(-c2ccccc2)c(OCCOc2ncc(Br)cn2)n1` [Example 114], the IC50 in test [1] was found to be 3880 nM; in test [2], 18.4 nM.

Consider `O=S(=O)(/C=C/c1ccccc1)Nc1nc(N2CCCCC2)nc(OCCOc2ncc(Br)cn2)c1-c1ccccc1` [Example 116], for which the IC50 in test [1] is more than 10000 nM; in test [2], 24.9 nM.

As to `COc1ccc(-c2c(NS(=O)(=O)/C=C/c3ccccc3)ncnc2OCCOc2ncc(Br)cn2)cc1` [Example 118], the half-inhibitory concentration (IC50) in test [1] was 1010 nM; in test [2], 9.8 nM.

In the case of `COc1ccc(-c2c(NS(=O)(=O)/C=C/c3ccccc3)ncnc2OCCOc2ncc(OC)cn2)cc1` [Example 119], the IC50 in test [1] was found to be 735 nM; in test [2], 55 nM.

As to `COc1ccc(-c2c(NS(=O)(=O)/C=C/c3ccccc3)ncnc2OCCOc2ncc(Cl)cn2)cc1` [Example 120], the IC50 in test [1] is 1630 nM; in test [2], 38.7 nM.

In the case of `COc1ccc(-c2c(NS(=O)(=O)/C=C/c3ccccc3)ncnc2OCCOc2ccc(Br)cn2)cc1` [Example 124], the IC50 in test [1] turned out to be 309 nM; in test [2] it was 33.2 nM.

As to `Cc1ccc(-c2c(NS(=O)(=O)/C=C/c3ccccc3)nc(-c3cnccn3)nc2OCCOc2ncc(Br)cn2)cc1` [Example 125], the results for the IC50 in test [1] and in test [2] were 2700 nM and 6.7 nM, respectively.

Take `COc1cnc(OCCOc2nc(-c3cnccn3)nc(NS(=O)(=O)/C=C/c3ccccc3)c2-c2ccc(C)cc2)nc1` [Example 126]: the IC50 in test [1] stood at 3640 nM; in test [2], 9 nM.

In the case of `Cc1ccc(-c2c(NS(=O)(=O)/C=C/c3ccccc3)nc(N3CCOCC3)nc2OCCOc2ncc(Br)cn2)cc1` [Example 127], the IC50 turned out to be 2750 nM in test [1] and 14.2 nM in test [2].

Turning to `Cc1ccc(-c2c(NS(=O)(=O)/C=C/c3ccccc3)nc(C3CC3)nc2OCCOc2ncc(Br)cn2)cc1` [Example 132], the values for the IC50 in test [1] and in test [2] were 1660 nM and 5.7 nM, respectively.

Take `COc1cnc(OCCOc2nc(C3CC3)nc(NS(=O)(=O)/C=C/c3ccccc3)c2-c2ccc(C)cc2)nc1` [Example 133]: the IC50 in test [1] stood at 1770 nM; in test [2], 8.2 nM.

For `Cc1ccc(-c2c(NS(=O)(=O)/C=C/c3ccccc3)nc(C3CC3)nc2OCCOc2ncc(Cl)cn2)cc1` [Example 134], the IC50 in test [1] is 4890 nM; in test [2], 6.3 nM.

Turning to `Cc1ccc(-c2c(NS(=O)(=O)/C=C/c3ccccc3)nc(C)nc2OCCOc2ncc(Br)cn2)cc1` [Example 138], the IC50 in test [1] is 1340 nM; in test [2] it was 4.4 nM.

For the compound `COc1cnc(OCCOc2nc(C)nc(NS(=O)(=O)/C=C/c3ccccc3)c2-c2ccc(C)cc2)nc1` [Example 139], the IC50 in test [1] came out at 1690 nM; in test [2], 9.8 nM.

Take `COc1cnc(OCCOc2nc(-c3ncccn3)nc(NS(=O)(=O)/C=C/c3ccccc3)c2-c2ccc(C)cc2)nc1` [Example 144]: the IC50 in test [1] is 3060 nM; in test [2] it was 10 nM.

`Cc1ccc(-c2c(NS(=O)(=O)/C=C/c3cccs3)nc(-c3ncccn3)nc2OCCOc2ncc(Br)cn2)cc1` [Example 145]: the IC50 in test [1] (CHO cell membranes, 8 pM [125I]ET-1, 2 h at 20° C.) came out at 2380 nM; in test [2], 9.1 nM.

As for `COc1ccccc1Oc1c(NS(=O)(=O)/C=C/c2cccs2)nc(-c2ncccn2)nc1OCCOc1ncc(Br)cn1` [Example 157], the IC50 worked out at 4500 nM in test [1] and 21.7 nM in test [2].

As to `COc1ccccc1Oc1c(NS(=O)(=O)/C=C/c2cccs2)nc(-c2ncccn2)nc1OCCOc1ncccn1` [Example 158], the 50% inhibitory concentration (IC50) in test [1] stood at 1260 nM; in test [2], 12.1 nM.

For the compound `COc1ccccc1Oc1c(NS(=O)(=O)/C=C/c2ccccc2)nc(-c2ccncc2)nc1OCCOc1ncc(Br)cn1` [Example 159], the 50% inhibitory concentration (IC50) in test [1] was found to be 2280 nM; in test [2], 7.3 nM.

As for `COc1cnc(OCCOc2nc(-c3ccncc3)nc(NS(=O)(=O)/C=C/c3ccccc3)c2Oc2ccccc2OC)nc1` [Example 160], the values for the IC50 in test [1] and in test [2] were 757 nM and 12.9 nM, respectively.

Turning to `COc1ccccc1Oc1c(NS(=O)(=O)/C=C/c2ccccc2)nc(-c2ccncc2)nc1OCCOc1ncc(Cl)cn1` [Example 164], the results for the IC50 in test [1] and in test [2] were 1560 nM and 10 nM, respectively.

For the compound `COc1ccccc1Oc1c(NS(=O)(=O)/C(C)=C/c2ccccc2)nc(-c2ccncc2)nc1OCCOc1ncc(Br)cn1` [Example 175], the results for the IC50 in test [1] and in test [2] were 499 nM and 4.7 nM, respectively.

As for `COc1ccccc1Oc1c(NS(=O)(=O)/C(C)=C/c2ccccc2)nc(-c2ccncc2)nc1OCCOc1ncc(Cl)cn1` [Example 176], the IC50 in test [1] was determined as 1080 nM; in test [2], 4.1 nM.

For the compound `COc1cnc(OCCOc2nc(-c3ccncc3)nc(NS(=O)(=O)/C(C)=C/c3ccccc3)c2Oc2ccccc2OC)nc1` [Example 177], the figures for the IC50 in test [1] and in test [2] were 363 nM and 5.5 nM, respectively.

Regarding `COc1ccccc1Oc1c(NS(=O)(=O)/C=C/c2ccsc2)nc(-c2ccncc2)nc1OCCOc1ncc(Br)cn1` [Example 178], the IC50 in test [1] worked out at 671 nM; in test [2], 5 nM.

As for `COc1cnc(OCCOc2nc(-c3ccncc3)nc(NS(=O)(=O)/C=C/c3ccsc3)c2Oc2ccccc2OC)nc1` [Example 179], the results for the IC50 in test [1] and in test [2] were 699 nM and 9 nM, respectively.

Take `COc1ccccc1Oc1c(NS(=O)(=O)/C=C/c2ccsc2)nc(-c2ccncc2)nc1OCCOc1ncccn1` [Example 180]: the IC50 in test [1] was determined as 1030 nM; in test [2] it was 7.4 nM.

Consider `COc1ccccc1Oc1c(NS(=O)(=O)/C=C/c2ccsc2)nc(-c2ccncc2)nc1OCCOc1ncc(Cl)cn1` [Example 181], for which the IC50 was 1980 nM in test [1] and 7.1 nM in test [2].

As to `COc1ccccc1Oc1c(NS(=O)(=O)/C=C/c2ccccc2)nc(-c2cnccn2)nc1OCCOc1ncc(Br)cn1` [Example 182], the IC50 in test [1] is 1400 nM; in test [2], 16.7 nM.

For `COc1cnc(OCCOc2nc(N3CCOCC3)nc(NS(=O)(=O)/C=C/c3ccccc3)c2Oc2ccccc2OC)nc1` [Example 197], the IC50 in test [1] was 220 nM; in test [2] it was 5 nM.

For the compound `COc1ccccc1Oc1c(NS(=O)(=O)/C=C/c2ccccc2)nc(N2CCOCC2)nc1OCCOc1ncc(C(F)(F)F)cn1` [Example 198], the values for the IC50 in test [1] and in test [2] were 595 nM and 7.9 nM, respectively.

For `COc1ccccc1Oc1c(NS(=O)(=O)/C(C)=C/c2ccccc2)nc(N2CCOCC2)nc1OCCOc1ncc(Br)cn1` [Example 202], the half-maximal inhibitory concentration (IC50) in test [1] came to 349 nM; in test [2] it was 2.4 nM.

Regarding `COc1cnc(OCCOc2nc(N3CCOCC3)nc(NS(=O)(=O)/C(C)=C/c3ccccc3)c2Oc2ccccc2OC)nc1` [Example 203], the IC50 in test [1] came out at 249 nM; in test [2], 3.4 nM.

Consider `COc1ccccc1Oc1c(NS(=O)(=O)/C=C/c2ccccc2)nc(N2CCOCC2)nc1OCCOc1ncc(SC)cn1` [Example 204], for which the IC50 was 138 nM in test [1] and 3.3 nM in test [2].

As to `COc1ccccc1Oc1c(NS(=O)(=O)/C=C/c2cccs2)ncnc1OCCOc1ncc(Br)cn1` [Example 214], the results for the IC50 in test [1] and in test [2] were 3940 nM and 39 nM, respectively.

For `COc1ccccc1Oc1c(NS(=O)(=O)/C=C/c2ccccc2)ncnc1OCCOc1ncc(SC)cn1` [Example 222], the IC50 in test [1] came out at 506 nM; in test [2], 41 nM.

With `COc1ccc(Cl)c(Oc2c(NS(=O)(=O)/C=C/c3ccccc3)ncnc2OCCOc2ncc(Br)cn2)c1` [Example 225], the IC50 in test [1] came out at 830 nM; in test [2] it was 5.2 nM.

Turning to `COc1cnc(OCCOc2ncnc(NS(=O)(=O)/C=C/c3ccccc3)c2Oc2cc(OC)ccc2Cl)nc1` [Example 226], the half-inhibitory concentration (IC50) in test [1] amounted to 1550 nM; in test [2], 15.4 nM.

As to `COc1ccc(Cl)c(Oc2c(NS(=O)(=O)/C=C/c3ccccc3)nc(-c3ccncc3)nc2OCCOc2ncc(Br)cn2)c1` [Example 228], the IC50 in test [1] came to 3910 nM; in test [2] it was 14.5 nM.
